Measured values: the NIST ThermoML archive (doi:10.1021/je101264r)
± gives the expanded uncertainty stated by the source.

Experiment: mn = molality of the nth substance listed, in mol/kg
Settings: 298.15 K, 101 kPa, Liquid, rubidium clock sound velocity meter

**Q.** What does the source list for `Nc1ncnc2c1ncn2[C@@H]1O[C@H](CO)[C@@H](O)[C@H]1O` [β-adenosine] + O?
**A.** speed of sound (m1 = 0.01701): 1497.8 ± 0.03 m/s; speed of sound (m1 = 0.01736): 1497.8 ± 0.03 m/s; speed of sound (m1 = 0.01799): 1497.8 ± 0.03 m/s; speed of sound (m1 = 0.01851): 1497.9 ± 0.03 m/s; speed of sound (m1 = 0.01911): 1497.9 ± 0.03 m/s; speed of sound (m1 = 0.0195): 1497.9 ± 0.03 m/s; speed of sound (m1 = 0.02001): 1498 ± 0.03 m/s; speed of sound (m1 = 0.02054): 1498 ± 0.03 m/s
